# Experimental data from US20250303006A1, “BIOCOMPATIBLE ANTISEPTIC COMPOSITION CONTAINING 9-HYDROXYCALABAXANTHONE AND/OR RELATED XANTHONES” (UNIVERSITAT DE LES ILLES BALEARS, priority 2022, published 2025).
# Columns and labels:
# [1] = tested on: S. aureus; format: cell-based
# Protocol: S. aureus ATCC 29213 was grown from frozen stocks in Luria-Bertani (LB) broth (Scharlab), at 37° C. under aerobic conditions in an orbital shaker (180 rpm). After overnight incubation, 1 mL of bacterial suspensions were incubated with different concentrations of CHX (0.01, 0.005, 0.003, 0.001, 0.0001%) and HCX (0.003, 0.002, 0.001, 0.0002, 0.00002%) for 3 hours at 37° C. under aerobic conditions in an orbital shaker (180 rpm). Bacterial suspension without treatment served as negative control (C−). The optical density (OD) was measured at 600 nm at 0 h and 3 h to determine bacterial proliferation (PowerWave Ht). The bacterial growth rate (μ) was calculated during the exponential growth phase following the equation ln ODt−ln OD0=μ×(t−t0) (n=4). The live/Dead ratio of bacteria was determined using the LIVE/DEAD BacLight bacterial viability kit (Invitrogen), following the manufacturer's instructions. The assays were carried out in triplicate.
# The bacteria S. aureus was cultured and treated with different commercial antiseptic gels and HA hydrogel with […] HCX. The gels were tested at a concentration of 5% (v/v), and the experiment was run like in experiment 7, section 7.1.
# 16.1. […]
# [2] = tested on: human gingival fibroblast cells; assay: LDH cytotoxicity in immortalized human gingival fibroblasts; format: cell-based
# Protocol: Cells were seeded in 48-well plates at a density of 2×10^4 cells/well. When the cells reached confluence, they were treated with different concentrations of HCX, and cytotoxicity was determined.
# 48 hours after seeding the iHGF cells in 48-well plates, cell inflammation was induced by means of adding 1 μg/ml of P. gingivalis lipopolysaccharide (LPS) (InvivoGen, San Diego, CA, USA) and the cells were treated with different concentrations of HCX (0.00002, 0.0002, 0.002%) in a fibroblast medium with 50 μg/ml of ascorbic acid (Sigma-Aldrich, St. Louis, MO, USA) for 48 hours. Images of the cells were taken with a bright field inverted microscope (Nikon Eclipse TS100) before treatment and 24 hours and 48 hours after treatment.
# To estimate the cytotoxicity of the different concentrations of HCX, the presence of lactate dehydrogenase (LDH) in the culture media 48 h after pro-inflammatory stimulation with LPS and treatment with HCX was used as the cell death index. Following the manufacturer's instructions (Cytotoxicity Detection kit, Roche Diagnostics, Mannheim, Germany), LDH activity was determined spectrophotometrically after a 30-minute incubation at room temperature (RT) of 50 μl of culture media and 50 μl of the reaction mixture, measuring nicotinamide adenine dinucleotide (NADH) oxidation at 490 nm in the presence of pyruvate. Results were presented in relation to LDH activity of the media of the cells seeded without treatment (negative control, 0% cell death) and in relation to cells treated with 1% Triton X-100 (positive control, 100% death) using the following equation: Cytotoxicity (%)=[(expected value−negative control)/(positive control−negative control)]×100.
# Different hydrogel formulations with and without 0.05% of HCX (HA, GelMa, Alginate and HPMC) and commercial gel containing 0.2% chlorhexidine and unmodified HA (Periokin Hyaluronic 1%, Laboratorios Kin, Commercial HA 0.2% CHX) were used for studies with gingival fibroblasts and S. epidermidis. Cells and bacteria without hydrogels served as negative control (C−). Gels at a concentration of 5% (v/v) were used for cell and bacterial studies.
# Immortalized human gingival fibroblasts were cultured like in experiment 1 of section 1.2. The cells were treated with different hydrogel formulations with and without 0.05% of HCX (HA, GelMa, Alginate and HPMC) and commercial gel containing 0.2% chlorhexidine and unmodified HA (Periokin Hyaluronic 1%, Laboratorios Kin, commercial HA 0.2% CHX) in a fibroblast medium for 24 hours (n=4). Cell cytotoxicity was measured, like in experiment 1 of section 1.4.
# 16.1. […]
# Immortalized human gingival fibroblasts were cultured like in experiment 1 of section 1.2. […] Cell cytotoxicity was measured, like in experiment 1 of section 1.4.
structure (smiles),measurement,setting,value
"CC(C)=CCc1c(O)cc(O)c2c(=O)c3cc4c(c(O)c3oc12)OC(C)(C)C=C4 [FXA, Formoxanthone A]",concentration with antibacterial effect without cytotoxicity,[1]; S. aureus 3 h together with LDH cytotoxicity in gingival fibroblasts 24 h,0.001%
"O=c1c2cc(O)c(O)cc2oc2cc(O)cc(O)c12 [NRT, norathryol, reference compound]",biocompatibility for the cells (LDH cytotoxicity),"[2]; all concentrations tested (0.4-77 μM), 24 h",biocompatible
same,antibacterial effect,"[1]; all concentrations tested (0.4-77 μM), 3 h",none of them were antibacterial
"COc1c(O)cc2oc3cc(O)c(CC=C(C)C)c(O)c3c(=O)c2c1CC=C(C)C [aMG, α-Mangostin]",toxicity to cells,[2]; 0.002% in solution,already toxic
